Measured values published in paper PMC7083565, “In vitro metabolism, reaction phenotyping, enzyme kinetics, CYP inhibition and induction potential of ataluren” (Pharmacology Research & Perspectives, 2020).

Key:
[1] = Plasma protein binding (ultrafiltration), mouse; format: in vitro ADME; settings: male, C57/BL10, 50 to 50 000 ng/mL, mean ± SD, n = 3, read-out: percentage protein binding (converted)
Procedure: [^14C]‐Ataluren, at 50, 500, 5000, and 50 000 ng/mL or 0.175, 1.75, 17.5, and 175 µM, in male mouse, rat, dog, monkey, and human plasma, was incubated (n = 3) at 37°C for approximately 15 minutes, transferred into Centrifree® Micropartition Units (30 000 Da molecular weight cutoff, 1 mL capacity; Amicon Inc), and centrifuged at 37°C and 2000 g for approximately 10 minutes so that the amount of the sample filtered was approximately ≤ 20% of the total volume. After centrifugation, the entire ultrafiltrate was weighed and analyzed for radioactivity using liquid scintillation counting. The percent bound = (1‐Cu/Cm)×100, where Cu is the concentration of radioactivity in the ultrafiltrate and Cm is the concentration of radioactivity in the plasma before centrifugation.

[2] = Glucuronidation in pooled human intestinal microsomes; format: in vitro ADME; settings: intestinal microsomes 1 mg protein/mL, 10 μmol/L, 60 minutes, n = 1
Procedure: Ataluren at 10 μmol/L, was incubated (n = 1) with pooled human intestinal, lung, and kidney microsomes (1 mg protein/mL, preactivated with alamethicin) to evaluate if ataluren‐O‐1β‐acyl glucuronide will be formed in these extrahepatic tissues. Incubation mixtures and procedures were essentially the same as the above. The supernatant fractions were analyzed by LC‐MS/MS to quantify the formation of ataluren‐O‐1β‐acyl glucuronide and the loss of ataluren. Detailed LC‐MS/MS conditions are summarized in LC‐MS/MS Analysis section. […] The ataluren acyl glucuronide formation rate after 60 minutes incubation was calculated using the amount of metabolite formed (pmol) divided by the protein amount in the incubation sample ([…]) and the incubation time (60 minutes).
Quantification of ataluren loss and ataluren‐O‐1β‐acyl glucuronide formation was carried out with an LC‐MS/MS system, which consisted of two Shimadzu LC‐10ADvp pumps, a SPD10‐AVP UV/Vis detector, a Shimadzu SILHTA autosampler, a Shimadzu DGU‐14A degasser, and a Sciex API 4000 QTRAP mass spectrometer equipped with a Turbo Ionspray ionization source that operated in positive ionization mode. […] Ion transitions monitored were at m/z 285 → m/z 123 for ataluren, m/z 461 → m/z 285 for ataluren acyl glucuronide, and m/z 289 → m/z 127 for ataluren‐D4 (internal standard), respectively.

[3] = DMD patients, oral 10, 10, 20 mg/kg/day (morning, mid-day and evening dose); read-out: mean Cmax at the steady state; cited from earlier work

O=C(O)c1cccc(-c2noc(-c3ccccc3F)n2)c1 [ataluren, Ataluren]
fraction unbound at 15 min [1]: 0.016
ataluren loss [2]: 34.4%
Cmax [3]: ~79.9 µM
